The text below walks through data of patent publication US12128098B2, “Non-specific delayed-type hypersensitivity response to treat herpes simplex virus infection” (Squarex, LLC, priority 2015, dated 2024).

In data set [1] the test system is HSV outbreak (cold sore on lower lip). Description: Treatment of an individual suffering from frequent and severe cold sores with topical DNCB at the site of the lesion. The format is in vivo, human. From the text:
The individual treated was one of the inventors. They are a person and was […] at the time of this treatment. The subject suffered from frequent cold sores on the lower lip. The outbreaks typically lasted 7-10 days and frequently longer. The subject had suffered from frequent cold sores most of their life. During the 6 months prior to this treatment, the outbreaks had been almost continuous. After getting over one outbreak, the next outbreak would begin often within a week.
In the morning they washed it off. A mild erythema in the area of the cold sore developed over 2-3 days and lasted a further 5 days, and the cold sore resolved in about 7 days, which was a typical duration for this individual or a slightly shorter duration than normal. […] Each outbreak would begin and completely resolve in one day. […] We think this may be because the immune system was recognizing not just the DNCB but also the herpes virus antigens with this second application. With the greater inflammation, the cold sore outbreak was worse than any of the outbreaks between the first and second DNCB treatments. […] The outbreak seemed to worsen as the inflammation associated with the DTH response worsened, and only lessened when the DTH response subsided.
When the outbreak subsided, the subject went another 6 months without any outbreaks to the present time.
For several months before and for the entire time described herein after the initial DNCB treatment, the subject took no antiviral medicines.

The nature of data set [2]: Presensitization and dose finding with DNCB solutions on the forearm (rash / erythema, DTH response). The data set is classed as in vivo, human. Conditions: for erythema on forearm: sensitized subject. From the text:
The subject then applied a 0.1%, 0.2%, and 0.3% solutions to separate small spots on the forearm.

The subject of data set [3] is herpes labialis (HSV cold sore outbreaks). Description: Clinical trial: treatment of herpes labialis by squaric acid dibutyl ester, time to and proportion of cold sore outbreaks after the sensitization dose. The format is in vivo, human. The settings on record: for Average days to first outbreak after the sensitization dose: 120 days used if no outbreak in 120 days. On the procedure: Thirty patients are recruited meeting the following criteria:
In a screening interview, vital signs are recorded, and information is collected on any medications the patient is currently taking, previous and current treatments for cold sores, severity and duration of cold sores.
[…] Participants are told then to wait at least 2 weeks for their first treatment.
Throughout the study, the participants are asked to maintain a subject diary, in which they record each day any symptoms they experience, including fever, swelling, pain, redness, itching, burning, the size of any lesions, and any medications taken.
Visit 2: After the 2-week period to allow development of sensitivity to SADBE, upon the beginning of his or her next outbreak (within 72 hours of the first signs of an outbreak), each participant is swabbed at the site of the herpes labialis lesion with a 0.5% solution of SADBE in DMSO.
Visit 3: Upon the next distinct outbreak at least 2 weeks after the previous treatment at visit 2, study diaries are collected. If the diary reflects redness, blistering, or burning greater than 0.5 cm beyond the clinical lesion with the previous SADBE treatment, the dosage of SADBE is decreased to 0.1%. If the diary reflects no redness or inflammation attributable to SADBE treatment, dosage is increased to 2%. Otherwise, dosage is maintained at 0.5%. Participants are swabbed at the site of the herpes labialis lesion with the SADBE solution.
If the hypersensitivity reaction produced by SADBE is excessive, patients are treated with a topical steroidal antiinflammatory cream. When a patient requests, outbreaks are treated with oral valacyclovir until the outbreak resolves.
For at least 6 months after visit 2, patients maintain their diaries. Every two months the diaries are collected.
A total of 46 patients have been enrolled in the study and have not dropped out.
The p value was calculated using the Fischer's two-tailed exact test.
The average days to the first outbreak after the sensitization dose was also measured. […] The A: placebo, 0% SADBE in DMSO.

Data set [4] in a line: Clinical trial of SADBE: rash (erythema) from the sensitization dose. The format is in vivo, human. The settings on record: pooled treatment groups B and C, 2% SADBE in DMSO. From the text:
Visit 1: Upon entering the study, patients are sensitized to squaric acid dibutyl ester (SADBE) by dipping a cotton-tipped swab in a 2% solution of SADBE in DMSO and swabbing a 1 cm^2 area on the forearm. Participants are told then to wait at least 2 weeks for their first treatment.

The subject of another data set is warts. Conditions: intralesional injection together with antigens versus antigen alone; differences not statistically significant; US 20050175634; cited from earlier work.
The mark [5] stands for this setting: third treatment, 0.1% DNCB solution on cold sore.

Several values for one entry are separate records, joined by “and”; a condition that tells them apart may be missing. Identical values can stand only once. Entries after “also recorded” stand apart in the source; their conditions may differ. Marks after values point to notes of the source that are not given here.

Regarding `O=[N+]([O-])c1ccc(Cl)c([N+](=O)[O-])c1` [DNCB, 1-chloro-2,4-dinitrobenzene], in data set [1] (4 weeks following the first 0.2% DNCB treatment of the lip lesion), the “severity and duration of subsequent outbreaks” value is “much less severe and of much shorter duration than before”. In addition, the “time without any outbreak after treatment” value is reported as 6 months in data set [1] (after the third treatment (0.1% DNCB), to the present time) and 6 months in data set [1] (following the second DNCB treatment at the site of a lesion). Moreover, in data set [1] (first application of 0.2% DNCB in acetone to cold sore on lower lip, left overnight), the “erythema in the area of the cold sore” value is “mild erythema”. The “time to resolution of the treated cold sore” value in data set [1] (first application of 0.2% DNCB in acetone to the lip lesion, typical outbreaks before lasted 7-10 days) was “about 7 days”. Further, the “frequency of cold sore outbreaks after treatment” value in data set [1] (next 4 weeks following the first 0.2% DNCB treatment) is “approximately weekly”. The “duration of each subsequent outbreak” value in data set [1] (outbreaks in the 4 weeks following the first 0.2% DNCB treatment) is “one”. Besides, in data set [1] (second application of 0.2% DNCB in acetone to lip lesion, about two months after the first), the “inflammation and erythema with the application” value is “more severe than they had been with the first application”. The results for the “duration of the treated HSV outbreak” value in data set [1] (second application of 0.2% DNCB to lip lesion) and in data set [1] (setting [5]) were “about 7 days” and “about 10 days”, respectively. Further, the “DTH response at the cold sore” value in data set [1] (setting [5]) is “moderate DTH response”. Further, the erythema on forearm result is reported as “almost no erythema” in data set [2] (0.1% DNCB solution) and “mild but easily seen erythema” in data set [2] (0.2% DNCB solution). Besides, the “rash after presensitizing application” value in data set [2] (2% DNCB solution in acetone, cotton-tipped swab, two spots on forearm, first application) is listed as “No rash developed”. Further, the “duration of rash after second application” value in data set [2] (2% DNCB solution on forearm, two weeks after the sensitizing dose) came to 3 weeks. The “rash after second application” value in data set [2] (2% DNCB solution on forearm, two weeks after the sensitizing dose, different spots) is “very strong but localized rash”.
In the case of `CCCCOc1c(OCCCC)c(=O)c1=O` [SADBE, 3,4-Dibutoxy-3-cyclobutene-1,2-dione], the “Persons having an outbreak within X days after the sensitization dose” value in data set [3] (<120 days, group B) is reported as 6 (of 16); in data set [3] (<120 days, group C), 4 (of 15); in data set [3] (within 30 days, group B (2% SADBE in DMSO sensitization, 0.5% treatment solution)) it was 2 (of 16); in data set [3] (within 30 days, group C (2% SADBE in DMSO sensitization, 0.2% treatment solution)), 3 (of 15); in data set [3] (within 30 days, pooled groups B + C (of 31), p vs placebo 0.26), 5; in data set [3] (within 45 days, group B), 4 (of 16). Moreover, the “Persons having an outbreak within X days after the sensitization dose” value in data set [3] (within 45 days, group C) is recorded as 4 (of 15); in data set [3] (within 45 days, pooled groups B + C (of 31), p vs placebo 0.099), 8; in data set [3] (within 60 days, group B), 5 (of 16); in data set [3] (within 60 days, group C), 4 (of 15); in data set [3] (within 60 days, pooled groups B + C (of 31), p vs placebo 0.0583), 9. In addition, the “Days to first new outbreak after sensitization dose on upper arm” value in data set [3] (each patient, 2% SADBE applied to the inner aspect of the upper arm) was 37 days and 41 days and 50 days and 80 days and 91 days and >120 days (19×) and 14 days (2×) and 15 days and 18 days and 34 days. Besides, the “Average days to first outbreak after the sensitization dose” value in data set [3] (group B, n 16) is listed as 88.5 days; in data set [3] (group C, n 15) it was 94.7 days; in data set [3] (pooled groups B + C, n 31, p=0.041 vs placebo, t test), 91.5* days. The “proportion who had a first outbreak between 30 and 120 days after receiving the sensitization dose” value in data set [3] (pooled groups B and C) is on record as 5 of 26. Also, the “effect on future HSV outbreaks” value in data set [3] (single topical sensitization dose of 2% SADBE in DMSO on the upper arm, no application at the lesion) was “prevented future HSV outbreaks; also recorded: usually did not have a subsequent outbreak during the study time”. Further, the “median time to the next HSV outbreak versus placebo” value in data set [3] (treated patients who did not develop a visible erythema at the site of application) is given as “longer median time to the next HSV outbreak than patients receiving placebo”. Moreover, the “median time to the next outbreak, outbreaks occurring in the 21 days after the sensitization dose excluded” value in data set [3] (treatment group, counting from the day of the sensitization dose) is reported as “greater than 120 days”. Besides, the “median time to the next outbreak counting from day 21 after the sensitization dose” value in data set [3] (treatment group, outbreaks in first 21 days excluded) is listed as “greater than 99 days”. Also, the “subjects who had a rash (erythema) from the sensitization dose” value in data set [4] is 17 of 28.
Consider “GM-CSF: cytokine used as immune response enhancer”, for which the “fraction of patients responding to treatment” value in the data set on warts is recorded as “A larger fraction of patients receiving interferon or GM-CSF together with the antigens responded to treatment than patients receiving antigen alone”.
For interferon alpha, the “fraction of patients responding to treatment” value in the data set on warts is “A larger fraction of patients receiving interferon or GM-CSF together with the antigens responded to treatment than patients receiving antigen alone”.
